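Dose response: 5 concentrations. Exposure: 48 h. Format: 96-well plates. Endpoint: linear interpolation; highest concentration if not reached. GI50 is the concentration that inhibits growth by half. TGI: concentration producing complete growth inhibition.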
Tests used:
Assay in all cases: NCI tumour cell line growth inhibition, 48 h
[1] = tested on: A549 NSCLC
[2] = tested on: ACHN renal
[3] = tested on: BT-549 breast
[4] = tested on: HCT-15 colon
[5] = tested on: HOP-62 NSCLC
[6] = tested on: HT29 colon
[7] = tested on: MDA-MB-435
[8] = tested on: SK-OV-3 ovarian
[9] = tested on: SNB-75 CNS
[10] = tested on: SW-620 colon

For `CN(CCc1ccccn1)c1ccc2c(c1)Cc1ccccc1-2`, the TGI [1] was > 100 µM, the TGI [2] was > 100 µM and the TGI [3] was 46.8 µM. The TGI [4] was > 100 µM, the TGI [5] was 44.6 µM and the TGI [6] was > 100 µM. The TGI [7] was > 100 µM, the TGI [8] was 68.6 µM and the TGI [9] was 45.2 µM. For the same compound, the TGI [10] was > 100 µM.

For `Fc1c(F)c(F)c(CSc2nc3ccccc3[nH]2)c(F)c1F`, the TGI [1] was > 100 µM, the TGI [2] was > 100 µM and the TGI [3] was > 100 µM. For the same compound, the TGI [4] was > 100 µM, the TGI [5] was > 100 µM and the TGI [6] was > 100 µM. The TGI [7] was > 100 µM, the TGI [8] was > 100 µM and the TGI [9] was > 100 µM. The TGI [10] was > 100 µM.

Compound `CC1(C)CC(C(=O)OCCCCCCCCCCC[P+](c2ccccc2)(c2ccccc2)c2ccccc2)C(C)(C)N1O` (stereo not drawn) has a GI50 [2] of 0.422 µM, a TGI [2] of 1.48 µM and a GI50 [3] of 0.116 µM. For the same compound, the TGI [3] was 1.05 µM, the GI50 [4] was 0.87 µM and the TGI [4] was 2.23 µM. The GI50 [5] was 0.319 µM, the TGI [5] was 0.904 µM and the GI50 [6] was 0.21 µM. It also gave a TGI [6] of 1.17 µM, a GI50 [7] of 0.274 µM and a TGI [7] of 1.33 µM. It also gave a GI50 [8] of 0.248 µM, a TGI [8] of 0.711 µM and a GI50 [10] of 0.344 µM. For the same compound, the TGI [10] was 1.45 µM.

In the case of `CC(C)(C)COS(=O)OCC(C)(C)C`, the TGI [1] is reported as > 100 µM, the TGI [2] is reported as > 100 µM and the TGI [3] is reported as > 100 µM. The TGI [4] was > 100 µM, the TGI [5] was > 100 µM and the TGI [6] was > 100 µM. The TGI [7] was > 100 µM, the TGI [8] was > 100 µM and the TGI [9] was > 100 µM. For the same compound, the TGI [10] was > 100 µM.

For `O=C1CNc2cc(N3CCCCC3)ccc2N1`, the TGI [1] was > 100 µM, the TGI [2] was > 100 µM and the TGI [3] was > 100 µM. For the same compound, the TGI [4] was > 100 µM, the TGI [5] was > 100 µM and the TGI [6] was 24.4 µM. For the same compound, the TGI [7] was > 100 µM, the TGI [8] was > 100 µM and the TGI [9] was > 100 µM. For the same compound, the TGI [10] was > 100 µM.

For `NC(N)=N/N=C/c1c(-c2cccs2)nc2n1CCS2`, the GI50 [1] was > 100 µM, the TGI [1] was > 100 µM and the GI50 [2] was 20.8 µM. It also gave a TGI [2] of 40.9 µM, a GI50 [3] of 21.4 µM and a TGI [3] of 44.8 µM. For the same compound, the GI50 [4] was 20.6 µM, the TGI [4] was 60.1 µM and the GI50 [6] was 17.2 µM. The TGI [6] was 30.9 µM, the GI50 [7] was 16.7 µM and the TGI [7] was 30.7 µM. For the same compound, the GI50 [8] was > 100 µM, the TGI [8] was > 100 µM and the GI50 [10] was 17.9 µM. It also gave a TGI [10] of 41.7 µM.

`Cc1ccc(S(=O)(=O)Nc2cc(=O)[nH]c3c2CCC3)cc1` was tested, and the TGI [1] was > 100 µM, the TGI [2] was > 100 µM and the TGI [3] was > 100 µM. The TGI [4] was > 100 µM, the TGI [5] was > 100 µM and the TGI [6] was > 100 µM. For the same compound, the TGI [7] was > 100 µM, the TGI [8] was > 100 µM and the TGI [9] was > 100 µM. The TGI [10] was > 100 µM.

In the case of `CS(=O)(=O)Nc1cccc(-c2ccc3ncnc(Nc4cncc(Cl)c4)c3c2)c1`, the GI50 [1] is reported as 2.5 µM, the TGI [1] is reported as > 100 µM and the GI50 [2] is reported as 1.11 µM. For the same compound, the TGI [2] was > 100 µM, the GI50 [3] was 2.34 µM and the TGI [3] was 7.39 µM. The GI50 [5] was 2.7 µM, the TGI [5] was 17.8 µM and the GI50 [6] was 1.85 µM. The TGI [6] was 4.65 µM, the GI50 [7] was 3.2 µM and the TGI [7] was > 100 µM. For the same compound, the GI50 [8] was 1.34 µM, the TGI [8] was 4.99 µM and the GI50 [9] was 2.77 µM. The TGI [9] was > 100 µM.

Work on `CC12OC(C(=O)C13CCC3)C1C(=O)c3c(O)ccc(O)c3C(=O)C12` (stereo not drawn) yielded a GI50 [1] of 5.79 µM, a TGI [1] of 22.3 µM and a GI50 [2] of 0.715 µM. For the same compound, the TGI [2] was 2.01 µM, the GI50 [3] was 5.97 µM and the TGI [3] was 16.4 µM. For the same compound, the GI50 [4] was 0.952 µM, the TGI [4] was 3.4 µM and the GI50 [5] was 3.01 µM. For the same compound, the TGI [5] was 15.6 µM, the GI50 [6] was 0.897 µM and the TGI [6] was > 51.6 µM. The GI50 [7] was 2.3 µM, the TGI [7] was 5.81 µM and the GI50 [8] was 18.6 µM. The TGI [8] was 54.3 µM, the GI50 [9] was 4.99 µM and the TGI [9] was 20.1 µM. For the same compound, the GI50 [10] was 1.39 µM and the TGI [10] was 3.88 µM.

From PubChem BioAssay (NCI)
